Measured values: patent US9556169B2, “Compounds and compositions for the treatment of parasitic diseases” (NOVARTIS AG, priority 2012, dated 2017)
Read-outs that look alike come from different tables or passages of the source.

Key:
[1] = system: Plasmodium yoelii (17XNL) sporozoites; assay: Liver stage P. yoelii sporozoite invasion assay in HepG2-A16-CD81EGFP cells; type: cell-based
Excerpt: Assay for Proliferation of Parasite in Infected Liver Cells
Compounds of the invention can be assayed to measure their capacity to inhibit proliferation of parasites in liver cells. The proliferation is quantified by determine the number of infected cells by immunofluorescence.
Due to the difficulty of successfully infecting immortalized human liver cell lines with the human malaria sporozoites (liver-stage parasite), rodent malaria sporozoites from Plasmodium yoelii (17XNL) and P. berghei (ANKA) are the preferred surrogate. Sporozoites are obtained from Anopheles stephensi mosquitoes supplied by the New York University Insectary, which ships the malaria-infected mosquitoes 10-13 days following the ingestion of an infective blood meal.
A transgenic HepG2 cell line expressing the tetraspanin CD81 receptor (HepG2-A16-CD81^EGFP) is used to increase the infectivity rate of rodent-malaria sporozoites into human cells. HepG2-A16-CD81^EGFP cells are stably transformed to express a GFP-CD81 fusion protein. A continuous in vitro culture of this line was maintained at 37° C. in 4% CO2 in complete media (CM) which contains: DMEM (Invitrogen, Carlsbad, USA) supplemented with 10% FCS, 0.29 mg/ml glutamine, 100 units penicillin and 100 μg/ml streptomycin (SigmaAldrich, USA).
Liver Stage P. yoelii Sporozoite Invasion Assay
Twenty to twenty-six hours prior to sporozoite infection, 7.5×10^3 HepG2-A16-CD81^EGFP cells are seeded into 384-well plates (Aurora 384 IQ-EB black plates with clear bottoms; 50 μl of 1.5×10^5 cells/ml in CM). These plates are incubated at 37° C. with 4% CO2 overnight. Two hours prior to infection, 50 nl of compound dissolved in DMSO (0.1% final DMSO concentration per well) were transferred with a PinTool (GNF Systems) into the assay plates (10 μM final concentration). A 1:3 serial dilution of atovaquone (10 μM at the highest final concentration) and wells treated only with DMSO were used as positive and negative controls, respectively.
Freshly dissected salivary glands from infected mosquitoes were homogenized in a glass tissue grinder, filtered twice through Nylon cell strainers (40 μm pore size, BD Falcon) and counted using a hemocytometer. The assay plate with HepG2-A16-CD81^EGFP cells and compound were then infected with 8×10^3 sporozoitesper well and the plates are subjected to a centrifugal force of 650×g to pellet the sporozoites onto the liver cell monolayer. The assay plate is incubated at 37° C. for 2 hours to permit sporozoite invasion, then the media is aspirated from the media plate, and replaced with 50 μl CM (containing a 5× concentration of penicillin/streptomycin; 500 units penicillin and 0.5 mg streptomycin per ml) per well. 50 nl of compound is re-introduced by PinTool and the assay plate incubated for 48 hours at 37° C. before quantification of infected cells by immunofluorescence.
Atovaquone and uninfected wells were used as controls on each plate. Two replicate plates are tested for each assay.
After fixing the cells by addition of 12.5 μl of 20% solution of paraformaldehyde (EMS, Hatfield, USA) to each assay well (4% final formaldehyde concentration), membranes were permeabilized with 0.5% Triton-X-100 (Thermo Fisher Scientific) and EEFs were stained using a mouse polyclonal serum raised against the Plasmodium yoelii heat shock protein 70 (PyHSP70), a DyLight 649 goat anti-mouse IgG, Fc(gamma) fragment specific secondary antibody (Jackson Immuno Research, Cat#115-495-071) and the Hoechst 33342 nucleic acid dye (Invitrogen, Carlsbad, USA). Stained EEFs were then quantified using the Opera Confocal High Content Screening System (Perkin Elmer, Waltham, USA). Images were collected using a 20× objective lens (20×/0.45 NA, LWD Plan Fluor, Olympus) at a binning of 2, using a 365 nm Xeon arc lamp illumination to detect the Hoechst-labeled nuclei and 635 nm laser line to excite DyLight649-labeled parasites. The image resolution yielded was approximately 0.66 μm/pixel (˜0.43 μm 2/pixel). […]

[2] = system: P. falciparum (NF54 or 3D7 strain); assay: P. falciparum proliferation assay in infected human blood cells (SYBR Green); type: cell-based; conditions: Plasmodium falciparum
Method in brief: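 Asexual NF54 or 3D7 parasites in O+ human erythrocytes (final 2.5% hematocrit, 0.3% parasitemia) exposed to compound for 72 h at 37 °C under 93% N2/4% CO2/3% O2. Lysis with SYBR Green I overnight at rt; fluorescence (ex 425/em 530 nm) tracks parasite DNA, giving EC50.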

[3] = values without * in Table 2, HepG2-A16-CD81EGFP liver cells, 48 hours, immunofluorescence, read-out: EC50 (nM), P. yoelii Sporozoite Invasion Assay
[4] = Erythrocyte, infected human erythrocytes, 72 hours, SYBR Green fluorescence, read-out: EC50 (nM), inhibitory efficacy in delaying P. falciparum proliferation in infected human blood cells

SMILES	EC50 [1, 3] [nM]	EC50 [2, 4] [nM]	EC50 ([1]; read-out: EC50, P. yoelii Sporozoite Invasion Assay) [nM]	EC50 ([2]; read-out: EC50, P. falciparum Proliferation Assay) [nM]
CN(C)CCNC(=O)c1ccc(-c2cnn3ccc(C(=O)N(C)c4ccc(C#N)cn4)cc23)cc1 [Example 115, N-(5-cyanopyridin-2-yl)-3-(4-((2-(dimethylamino)ethyl)carbamoyl)phenyl)-N-methylpyrazolo[1,5-a]pyridine-5-carboxamide]	79	155	–	–
CNC(=O)c1ccc(-c2cnn3ccc(C(=O)N(C)c4ccc(C(F)(F)F)cc4)cc23)cc1 [Example 103, N-Methyl-3-(4-(methylcarbamoyl)phenyl)-N-(4-(trifluoromethyl)phenyl)pyrazolo[1,5-a]pyridine-5-carboxamide]	62	3	–	–
CCN(C(=O)c1ccn2ncc(-c3ccc(C(=O)NC)cc3)c2c1)c1ccc(C#N)cn1 [Example 90, N-(5-Cyanopyridin-2-yl)-N-ethyl-3-(4-(methylcarbamoyl)phenyl)pyrazolo[1,5-a]pyridine-5-carboxamide]	39	8	–	–
CNC(=O)c1ccc(-c2cnn3ccc(C(=O)N(CC4CC4)c4ccc(C#N)cn4)cc23)cc1 [Example 117, N-(5-Cyanopyridin-2-yl)-N-(cyclopropylmethyl)-3-(4-(methylcarbamoyl)phenyl)pyrazolo[1,5-a]pyridine-5-carboxamide]	7	4	–	–
CNC(=O)c1ccc(-c2cnn3ccc(C(=O)N(c4ccc(C#N)cn4)C(C)C)cc23)cc1 [Example 91, N-(5-cyanopyridin-2-yl)-N-isopropyl-3-(4-(methylcarbamoyl)phenyl)pyrazolo[1,5-a]pyridine-5-carboxamide]	23	13	–	–
CN(C(=O)c1ccn2ncc(-c3ccc(C(N)=O)cc3)c2c1)c1ccc(Cl)cc1 [Example 100, 3-(4-Carbamoylphenyl)-N-(4-chlorophenyl)-N-methylpyrazolo[1,5-a]pyridine-5-carboxamide]	20	9	–	–
CNC(=O)c1ccc(-c2cnn3ccc(C(=O)N(C)c4ccc(Cl)cc4)cc23)cc1 [Example 99, N-(4-Chlorophenyl)-N-methyl-3-(4-(methylcarbamoyl)phenyl)pyrazolo[1,5-a]pyridine-5-carboxamide]	15	1	–	–
CNC(=O)c1ccc(-c2cnn3ccc(C(=O)N(c4ccc(Cl)cc4)C4CC4)cc23)cc1 [Example 116, N-(4-Chlorophenyl)-N-cyclopropyl-3-(4-(methylcarbamoyl)phenyl)pyrazolo[1,5-a]pyridine-5-carboxamide]	3	1	–	–
CN(C(=O)c1ccn2ncc(-c3cnc(Cl)c(NS(C)(=O)=O)c3)c2c1)c1ccc(C#N)cn1 [Example 107, 3-(6-Chloro-5-(methylsulfonamido)pyridin-3-yl)-N-(5-cyanopyridin-2-yl)-N-methylpyrazolo[1,5-a]pyridine-5-carboxamide]	180	10	–	–
CNC(=O)c1ccc(-c2cnn3ccc(C(=O)N(C)c4ccc(C#N)cn4)cc23)cc1 [Example 75, N-(5-cyanopyridin-2-yl)-N-methyl-3-(4-(methylcarbamoyl)phenyl)pyrazolo[1,5-a]pyridine-5-carboxamide]	–	–	< 10	< 5
CNC(=O)c1ccc(-c2cnn3ccc(C(=O)N(CCO)c4ccc(C#N)cc4)cc23)cc1 [Example 110, N-(4-Cyanophenyl)-N-(2-hydroxyethyl)-3-(4-(methylcarbamoyl)phenyl)pyrazolo[1,5-a]pyridine-5-carboxamide]	253	54	–	–
CCN(C(=O)c1ccn2ncc(-c3ccc(S(=O)(=O)NC)cc3)c2c1)c1ccc(C#N)cn1 [Example 140, N-(5-cyanopyridin-2-yl)-N-ethyl-3-(4-[N-methylsulfamoyl]phenyl)pyrazolo[1,5-a]pyridine-5-carboxamide]	84	199	–	–
CNC(=O)c1ccc(-c2cnn3ccc(C(=O)N(c4ccc(C#N)cn4)C4CC4)cc23)cc1 [Example 93, N-(5-Cyanopyridin-2-yl)-N-cyclopropyl-3-(4-(methylcarbamoyl)phenyl)pyrazolo[1,5-a]pyridine-5-carboxamide]	10	6	–	–
CNCCNC(=O)c1ccc(-c2cnn3ccc(C(=O)N(C)c4ccc(C#N)cn4)cc23)cc1 [Example 114, N-(5-Cyanopyridin-2-yl)-N-methyl-3-(4-((2-(methylamino)ethyl)carbamoyl)phenyl)pyrazolo[1,5-a]pyridine-5-carboxamide]	950	52	–	–
CN(C(=O)c1ccn2ncc(-c3ccnc(N)c3)c2c1)c1ccc(C#N)cn1 [Example 108, 3-(2-Aminopyridin-4-yl)-N-(5-cyanopyridin-2-yl)-N-methylpyrazolo[1,5-a]pyridine-5-carboxamide]	472	2470	–	–
CN(C(=O)c1ccn2ncc(-c3ccc(C(=O)NC4CCNCC4)cc3)c2c1)c1ccc(C#N)cn1 [Example 113, N-(5-Cyanopyridin-2-yl)-N-methyl-3-(4-(piperidin-4-ylcarbamoyl)phenyl)pyrazolo[1,5-a]pyridine-5-carboxamide]	1650	311	–	–
CN(C(=O)c1ccn2ncc(-c3cnc(Cl)c(N)c3)c2c1)c1ccc(C#N)cn1 [Example 98, 3-(5-Amino-6-chloropyridin-3-yl)-N-(5-cyanopyridin-2-yl)-N-methylpyrazolo[1,5-a]pyridine-5-carboxamide]	2060	19	–	–
CNC(=O)c1ccc(-c2cnn3ccc(C(=O)N(c4ccc(C#N)cn4)C4CCC4)cc23)cc1 [Example 112, N-(5-Cyanopyridin-2-yl)-N-cyclobutyl-3-(4-(methylcarbamoyl)phenyl)pyrazolo[1,5-a]pyridine-5-carboxamide]	9	4	–	–
